One series concerns HUVECs. Description: Transwell migration inhibition on HUVECs. Format: cell-based, human. The note with it: dose 0.2 μM.
Series [1] deals with human retinal capillary endothelial cells (HRCECs). Nature of the series: MTT proliferation inhibition on HRCECs. In kind it is cell-based. To be noted: 48 h, dose 0.5 μM (positive control). The procedure:
An MTT method was used to detect the inhibitory activity of the angiogenesis inhibitor polypeptide on proliferation of HRCECs. HRCECs were digested and collected with trypsin after being cultured in an incubator at 37° C. with 5% CO2 to a density of 90% or more. The cells were resuspended with a culture solution and counted under a microscope, the cell concentration was adjusted to 3.0×10^4 cells/mL, and the cell suspension was inoculated into a 96-well plate at 100 μL/well, and cultured overnight in an incubator at 37° C. with 5% CO2. After the cells were completely adhered to the wall, cells with the addition of the angiogenesis inhibitor polypeptide were used as administration groups, cells with the addition of Avastin were used as a positive control group, and cells with the addition of culture solution without any drugs were used as a blank control group. The cells were diluted to respective predetermined concentrations with the culture solution. The diluent were added into 96-well plates respectively at 100 μL per well, and the cells were cultured at 37° C. for 48 h in an incubator with 5% CO2. 20 μL of 5 mg/mL MTT was added into each well of the 96-well plate, and the cultivation was continued for 4 h. The culture medium was removed, and 100 μL of DMSO was added to each well for dissolution. The absorbance was measured at a detection wavelength of 570 nm and a reference wavelength of 630 nm using a microplate reader, and the PIR was calculated by the formula as follows:
PIR (%)=1−administration group/negative group
The experiment was repeated independently three times. The results were expressed as mean±SD, and statistical T test was conducted. *P<0.05 indicates significant difference, and **P<0.01 indicates extremely significant difference.

The subject of series [2] is xylene-induced ear swelling. Nature of the series: Xylene-induced mouse ear swelling. In kind it is in vivo. To be noted: Kunming mice, positive control, dose 200 mg/kg, once a day for 5 days. The procedure: Kunming mice were taken, a normal saline group was taken as a blank control group, an aspirin group (200 mg/kg) was taken as a positive control group, and X1-X90 administration groups were taken as test groups. The mice were injected once a day for 5 consecutive days. The blank control group was given an equal volume of normal saline. One hour after the last administration, 0.05 mL of xylene was applied to both sides of the right ear of each mouse to cause inflammation, while no drug was applied to the left ear as a normal ear. Two hours later, the mice were put to death by dislocation. Two ears were cut along the auricle. Ear pieces were taken with a puncher and weighed, and the swelling degree and the swelling rate were calculated. Swelling degree=right ear piece weight-left ear piece weight, swelling rate=(swelling degree/left ear piece weight)*100%. Statistical t-test was conducted on the experimental results. *P<0.05 indicates significant difference, and **P<0.01 indicates extremely significant difference.

For the next series, the system named is splenic lymphocytes. Description: Proliferation of splenic lymphocytes in mice (ConA, MTT). Format: cell-based. The note with it: dose 20 μM (Dex group), mouse splenic lymphocytes, 48 h. On the procedure:
Spleens of mice were taken out under aseptic conditions, washed with blank 1640 culture medium 3 times, ground with a 5 mL syringe core, filtered with a 200-mesh sieve, made into a single cell suspension. The suspension was centrifuged (1000 rpm×5 min), and supernatant was removed. Red blood cells were lysed by Tris-NH4Cl, and placed in ice water bath for 4 min and centrifuged (1000 rpm×5 min). The supernatant was removed, and the cells were washed twice with sterile PBS. Finally, RPMI 1640 culture solution (5 mL) containing 10% calf serum was added to suspend the cells. The cells were counted and the cell concentration was adjusted to 5×10^6 cells/mL, and the cells were cultured in a 96-well culture plate.
Blank control group, concanavalin A (ConA) group and dexamethasone (Dex) group were set in the experiment, and polypeptide X1-X90 groups were set as test groups. After 100 μL of splenic lymphocytes suspension per well was added into each group, 100 μL of blank 1640 culture solution was added into the blank control group, ConA was added into the ConA group, Dex was added into the Dex group, and ConA was added into the test groups on the basis of adding different concentrations of polypeptides X1-X90. The cells were static cultured at 37° C. in a cell incubator for 48 h. After the cultivation was completed, 20 μL of MTT was added to each well, and the cultivation was continued for 4 h. Finally, all the solutions in each well were discarded. 100 μL DMSO was added to each well and shaken, and the OD value at 570 nm was detected with a microplate reader. Five parallel experiments were set in each well.

In series [3] the test system is IL-1β production by mouse peritoneal macrophages. Nature of the series: IL-1β production by mouse peritoneal macrophages (ELISA). Format: cell-based. The note with it: dose 20 μM. The procedure: Mice were injected intraperitoneally with 1 mL of broth culture medium (containing 6% of starch). Three days later, mice peritoneal macrophages were taken aseptically and washed twice with 1640 culture medium, and the cell concentration was adjusted to 2×10^6 cells/mL. The solutions were injected into 24-well culture plates at 1 mL per well. The cells were incubated in a cell incubator for 3 h and vibrated once every 30 min to make the cells fully adhere to the wall. Then, the cells were washed twice with a culture solution to remove non-adhered cells. PBS was added to the blank group, positive drug Dex was added to the positive group, no drug was added to the model group, and polypeptides X1-X90 with low, medium and high concentrations were added to the test groups; and the cells were continuously cultured for 48 h after administration, and then centrifuged at 1000 r/min for 15 min. The supernatant was collected as a sample to be tested for IL-1β activity.

For series [4], the system named is carrageenan-induced toe swelling. Description: Carrageenan-induced toe swelling in rats. In kind it is in vivo. To be noted: SD rats, Dex 10 mg/kg once a day for 3 d. On the procedure: The rats were injected once a day, and the model group was given the same volume of normal saline for 3 d and fed normally. […] The foot swelling degree was calculated according to the following formula: foot swelling degree (mL)=foot volume after inflammation-foot volume before inflammation. The number of milliliters of overflow liquid was recorded (method: a ballpoint pen is used to circle the protruding point of the right joint as a measurement mark, and the right hind feet of each rat are sequentially placed into the volume measurer, so that the hind limbs are exposed outside the barrel, and the immersion depth is at the coincidence of the circle and the liquid level. After the foot enters the liquid, the liquid level rises, and the volume of overflow liquid is the volume of the right hind foot of the rat, and the normal volume of the right hind foot of each rat is measured in sequence).

Series [5] has as its system Head and neck cancers tumor cell line. Description: MTT proliferation inhibition, head and neck cancers. Format: cell-based, human. The note with it: 48 h, mean ±SD.
A further series relates to Brain tumor cell line. Description: MTT proliferation inhibition, brain tumor. Format: cell-based, human. The note with it: 48 h, mean ±SD.
Series [6] deals with Thyroid cancer tumor cell line. Description: MTT proliferation inhibition, thyroid cancer. In kind it is cell-based, human. To be noted: 48 h, mean ±SD.
The subject of series [7] is Esophageal cancer tumor cell line. Nature of the series: MTT proliferation inhibition, esophageal cancer. In kind it is cell-based, human. To be noted: 48 h, mean ±SD.
Series [8] relates to Pancreatic cancer tumor cell line. Nature of the series: MTT proliferation inhibition, pancreatic cancer. In kind it is cell-based, human. To be noted: 48 h, mean ±SD.
Series [9] is described as follows: Half-lives and pharmacokinetic parameters of polypeptides vs HM-1. The note with it: in vivo.

Marks after values point to notes of the source that are not given here. Peptide text beside a SMILES is read from it. * marks the point of attachment. X14 = O=C1C=CC(=O)N1CCOCCOCCOCCOCCOCCCCCCC(=O)*

On to “Avastin: positive control [reference compound]”, for which the “Inhibition rate (%)” value in the series with HUVECs (HUVEC migration vs blank control) was 60.92%; in series [1], 67.30%**. Further, the “Cell migration number (Mean ± SD)” value in the series on HUVECs (HUVECs, transwell, 24 h) stood at 418.92 ± 61.42; in the series on HUVECs (24 h), 418.92 ± 61.42. Further, the “Inhibition rate (migration)” value with HUVECs (24 h) is 60.92%. In [1] (mean±SD), the “A570 nm-A630 nm” value is recorded as 0.4325 ± 0.01108.

As for `CC(=O)Oc1ccccc1C(=O)O` [Aspirin], the “Swelling degree (mg)” value in series [2] is reported as 3.08 ± 0.31** mg. Further, the inhibition at 200 mg/kg in series [2] (Mus musculus, 120 h, read-out: Inhibition rate (%)) is 51%.

`C[C@@H]1C[C@H]2[C@@H]3CCC4=CC(=O)C=C[C@]4(C)[C@@]3(F)[C@@H](O)C[C@]2(C)[C@@]1(O)C(=O)CO` [Dex]: in the series with splenic lymphocytes, the “A570 nm/A630 nm” value amounted to 0.3918 ± 0.1127 and the “Inhibition rate (%)” value is reported as 52.65%. Moreover, the Inhibition rate in series [3] (IL-1β production, vs model group) was 62.95%. The compound also gave an IL-1β in [3] (mouse peritoneal macrophages, 48 h, ELISA) of 352.06 ± 17.29 pg/mL. The “Swelling degree 1 h” value in series [4] (1 h after carrageenan) was 0.22 ± 0.10 mg. Besides, the “Swelling degree 3 h” value in series [4] (3 h after carrageenan) is 0.24 ± 0.11 mg. Besides, the “Swelling degree 5 h” value in [4] (5 h after carrageenan) came to 0.29 ± 0.11 mg. Moreover, the “Swelling degree 7 h” value in [4] (7 h after carrageenan) is recorded as 0.23 ± 0.08 mg.

For the compound `CC(=O)O[C@@]12CO[C@@H]1C[C@H](O)[C@@]1(C)C(=O)[C@H](O)C3=C(C)[C@@H](OC(=O)[C@H](O)[C@@H](NC(=O)OC(C)(C)C)c4ccccc4)C[C@@](O)([C@@H](OC(=O)c4ccccc4)[C@H]21)C3(C)C` [Docetaxel], the “PIR (%)” value in series [5] is given as 55.66%; in the series with Brain tumor cell line, 70.69%; in [6], 73.75%; in series [7] it was 53.43%; in series [8], 45.92%.

In series [9], `C[C@H](NC(=O)CNC(=O)[C@H](CCCNC(=N)N)NC(=O)CCCCCCOCCOCCOCCOCCOCCN1C(=O)C=CC1=O)C(=O)N[C@@H](CC(=O)O)C(=O)N[C@@H](CCCNC(=N)N)C(=O)N[C@@H](C)C(=O)NCC(=O)NCC(=O)NCC(=O)NCC(=O)N[C@@H](CCCNC(=N)N)C(=O)NCC(=O)N[C@@H](CC(=O)O)C(=O)O` [X82] (X14-RGADRAGGGGRGD-OH) gave a total exposure AUC(0-inf) of 25700 ± 7220 ng·h/mL, an MRT inf of 46 ± 13.6 h and a clearance of 0.648 mL/min/kg. The compound also gave a half-life in series [9] (T1/2β (half-life)) of 31.9 ± 0.35 h.

For orientation: inhibition means the relative decrease from the control value, in per cent. By AUC(0-inf) is commonly meant total exposure, with the tail of the curve extrapolated. Broadly, the MRT inf is a mean duration of stay, worked out from the concentration-time curve. The clearance is the rate of elimination divided by the concentration. A word on the half-life: it is the time in which the quantity being followed falls by half.

Source of the values: patent publication US20200270309A1, “MALEIMIDE GROUP-MODIFIED ANGIOGENESIS INHIBITOR HM-1 AND USE THEREOF” (NANJING ANJI BIOLOGICAL TECHNOLOGY CO., LTD, priority 2017, published 2020).
